Laboratory results from US20170066779A1, “SOLID FORMS OF A FLAVIVIRIDAE VIRUS INHIBITOR COMPOUND AND SALTS THEREOF” (IDENIX Pharmaceuticals LLC, priority 2014, published 2017).

Tests used:
[1] = Solid-state storage stability at elevated temperature and humidity (XRPD); assay type: physicochemical
Procedure: One hundred milligrams of the amorphous form of the compound of Formula I was solubilized into 5 volumes of ethyl acetate or acetone under constant stirring at respectively 70° C. or 50° C. (experiment performed in duplicate). […] Systems were then allowed to equilibrate at initial temperature for 1 hour (crashing out reported in all cases). Some samples were then filtered at respectively 70° C. or 50° C. Other samples were cooled to 0° C. at 0.1° C./min. Suspensions were observed after 1 hour slurrying at 0° C. Ten volumes of solvent were added to each sample and the systems were allowed to equilibrate at 0° C. for 1 hour. One aliquot of each condition was filtered under reduced pressure, dried for 16 hours at 70° C. and 3 mbar and characterized by XRPD, ^1H-NMR and HPLC (Table 6).
Ca. 0.5 g of the compound of Formula I was weighed in a 10 mL vial, 15 vol. of IPAc were added. The suspension was heated to 50° C., 2.5 eq of acid added (from a stock solution 1 M in THF) and then cooled to 5° C. at 0.1° C. min^−1. Suspension was filtered with vacuum and allowed to dry under these conditions for 4 h. Samples were analyzed by XRPD to check the conversion and then they were dried under vacuum at 30° C. for 20 h. […] The suspension was heated to 50° C. and additional 0.5 eq of acid added from a stock solution 1 M in THF. The suspension was then cooled to 5° C. at 0.1° C. min^−1. The solid was filtered with vacuum and allowed to dry under these conditions for 4 h. The solid was analyzed by XRPD to check the conversion and then it was dried under vacuum at 30° C. for 20 h.

[2] = Gravimetric vapor sorption (GVS); assay type: physicochemical; conditions: for XRPD post GVS / XRPD after GVS: solid form after the sorption cycle
Procedure: Sorption isotherms were obtained using a SMS DVS Intrinsic moisture sorption analyzer, controlled by DVS Intrinsic Control software v1.0.0.30. The sample temperature was maintained at 25° C. by the instrument controls. The humidity was controlled by mixing streams of dry and wet nitrogen, with a total flow rate of 200 mL/min. The relative humidity (RH) was measured by a calibrated Rotronic probe (dynamic range of 1.0-100% RH), located near the sample. The weight change, (mass relaxation) of the sample as a function of % RH was constantly monitored by the microbalance (accuracy ±0.005 mg). Typically 5-20 mg of sample was placed in a tared mesh stainless steel basket under ambient conditions. The sample was loaded and unloaded at 40% RH and 25° C. (typical room conditions). A moisture sorption isotherm was performed as outlined below (2 scans giving 1 complete cycle). The standard isotherm was performed at 25° C. at 10% RH intervals over a 0-90% RH range. Data analysis was undertaken in Microsoft Excel using DVS Analysis Suite v6.0.0.7.

[3] = Thermodynamic aqueous solubility; assay type: physicochemical; conditions: for thermodynamic aqueous solubility, rank order: solubility decreases in the printed order
Procedure: The suspension was equilibrated at 25° C. for 24 hours then the pH was measured. The suspension was then filtered through a glass fibre C filter. The filtrate was then diluted by an appropriate factor, e.g. 101. Quantitation was by HPLC with reference to a standard solution of approximately 0.25 mg/mL in DMSO. Different volumes of the standard, diluted and undiluted sample solutions were injected.

[4] = Absolute oral bioavailability in rats; conditions: rat, in vivo, dosed as a solution in 0.5% TPGS/37.5% PEG200/60% PBS, 10 mg/kg PO and 2 mg/kg IV
Procedure: The desired route of administration for the compound of Formula I is oral. The absolute oral bioavailability in rats was determined to be approximately 4-8% when dosed as a solution in 0.5% TPGS/37.5% PEG200/60% PBS. The doses were 10 mg/kg PO and 2 mg/kg IV.

[5] = Half-life in human hepatocytes; assay type: in vitro ADME
Procedure: Furthermore, the half-life in human hepatocytes was in the mid/long range of >8 hours for the compound of Formula I. Consequently, rapid hepatic clearance is unlikely to contribute to low oral bioavailability.

P-gp = target: T1, P-gp (Homo sapiens, UniProt P08183); experiment: P-gp substrate assessment (BA/AB transport ratio, with or without cyclosporine A); assay type: in vitro ADME
T1 construct: endogenous in cells; host or cells: Caco-2
T1 sequence (P08183 whole entry): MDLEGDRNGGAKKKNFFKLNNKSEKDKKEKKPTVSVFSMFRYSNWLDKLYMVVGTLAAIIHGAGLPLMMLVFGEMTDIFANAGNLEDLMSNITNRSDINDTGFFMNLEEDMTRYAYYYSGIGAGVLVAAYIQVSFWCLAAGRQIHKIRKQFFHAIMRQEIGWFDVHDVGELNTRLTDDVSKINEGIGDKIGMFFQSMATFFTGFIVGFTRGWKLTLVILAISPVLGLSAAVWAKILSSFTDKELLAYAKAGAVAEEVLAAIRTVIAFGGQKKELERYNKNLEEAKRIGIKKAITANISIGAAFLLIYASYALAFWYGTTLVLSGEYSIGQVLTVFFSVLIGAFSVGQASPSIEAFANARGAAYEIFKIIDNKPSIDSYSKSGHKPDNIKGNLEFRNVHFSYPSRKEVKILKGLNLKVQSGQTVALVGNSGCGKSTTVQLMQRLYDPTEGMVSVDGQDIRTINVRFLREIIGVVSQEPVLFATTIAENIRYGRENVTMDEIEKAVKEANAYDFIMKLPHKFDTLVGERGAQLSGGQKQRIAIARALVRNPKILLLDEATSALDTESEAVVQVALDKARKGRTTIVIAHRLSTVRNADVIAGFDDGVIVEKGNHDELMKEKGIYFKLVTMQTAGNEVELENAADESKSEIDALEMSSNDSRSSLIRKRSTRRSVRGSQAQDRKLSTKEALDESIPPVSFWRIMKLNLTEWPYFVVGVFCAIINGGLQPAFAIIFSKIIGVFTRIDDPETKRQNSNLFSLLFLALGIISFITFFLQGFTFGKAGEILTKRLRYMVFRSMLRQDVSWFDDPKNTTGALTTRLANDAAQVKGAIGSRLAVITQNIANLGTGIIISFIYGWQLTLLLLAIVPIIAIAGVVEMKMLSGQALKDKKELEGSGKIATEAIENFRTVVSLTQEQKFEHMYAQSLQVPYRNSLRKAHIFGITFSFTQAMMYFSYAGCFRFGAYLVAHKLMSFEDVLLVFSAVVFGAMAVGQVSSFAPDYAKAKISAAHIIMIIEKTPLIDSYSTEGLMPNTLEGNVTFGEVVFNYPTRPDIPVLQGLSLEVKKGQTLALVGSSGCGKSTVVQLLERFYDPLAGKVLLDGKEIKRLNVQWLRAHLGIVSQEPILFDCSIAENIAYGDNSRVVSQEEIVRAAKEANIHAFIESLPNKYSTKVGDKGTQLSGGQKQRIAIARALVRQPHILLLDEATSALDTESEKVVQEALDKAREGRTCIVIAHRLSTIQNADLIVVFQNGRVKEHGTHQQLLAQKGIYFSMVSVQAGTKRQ

Caco-2 cell model = experiment: Permeability in the 3-day Caco-2 cell model; assay type: in vitro ADME

COC(=O)N[C@H](C(=O)N1CCC[C@H]1c1nc2ccc(-c3csc4c(-c5ccc(-c6cnc([C@@H]7CCCN7C(=O)[C@H](NC(=O)OC)c7ccccc7)[nH]6)cc5)csc34)cc2[nH]1)C(C)C [Form A, methyl N-{(1R)-2-[(2S)-2-{5-[4-(6-{2-[(2S)-1-{(2S)-2-[(methoxycarbonyl)amino]-3-methylbutanoyl}pyrrolidin-2-yl]-3H-benzimidazol-5-yl}thieno[3,2-b]thiophen-3-yl)phenyl]-1H-imidazol-2-yl}pyrrolidin-1-yl]-2-oxo-1-phenylethyl}carbamate]
Stability 25° C./92% RH (XRPD after 11 days) ([1]; 25° C./92% RH, 11 days): Form A
Stability 40° C./75% RH (XRPD after 11 days) ([1]; 40° C./75% RH, 11 days): Form A
effect of GVS analysis and storage at elevated temperature and humidity on the crystals ([1]; eleven days, recrystallized 100 mg scale samples): remained as Form A
GVS weight uptake at 90% RH ([2]; 25° C., 90% RH): 1.16 wt %
XRPD post GVS / XRPD after GVS [2]: Form A

COC(=O)N[C@H](C(=O)N1CCC[C@H]1c1nc2ccc(-c3csc4c(-c5ccc(-c6cnc([C@@H]7CCCN7C(=O)[C@H](NC(=O)OC)c7ccccc7)[nH]6)cc5)csc34)cc2[nH]1)C(C)C [compound of Formula I, methyl N-{(1R)-2-[(2S)-2-{5-[4-(6-{2-[(2S)-1-{(2S)-2-[(methoxycarbonyl)amino]-3-methylbutanoyl}pyrrolidin-2-yl]-3H-benzimidazol-5-yl}thieno[3,2-b]thiophen-3-yl)phenyl]-1H-imidazol-2-yl}pyrrolidin-1-yl]-2-oxo-1-phenylethyl}carbamate]
BCS classification ([3]; based on poor aqueous solubility and low Caco-2 permeability): BCS Class IV
solubility ([3]; poor aqueous solubility, basis of BCS classification): < 500 µg/mL
thermodynamic aqueous solubility, rank order [3]: HCl>H2SO4>tosylate=free base form
bioavailability [4]: 4 to 8%
half-life [5]: > 8 h
effect from addition of P-gp inhibitor cyclosporine A (P-gp): absence of effect
P-gp substrate (P-gp; deduced from BA/AB transport ratio and cyclosporine A addition): not a P-gp substrate
efflux ratio (P-gp; human, Caco-2): < 1
permeability (Caco-2 cell model): low permeability

H2SO4
Stability 25° C./92% RH (XRPD after 7 days) ([1]; 25° C./92% RH): Amorphous
Stability 40° C./75% RH (XRPD after 7 days) ([1]; 40° C./75% RH): Amorphous
GVS wt uptake between 0-90% RH [2]: RH 25.5% wt
GVS wt uptake between 40-75% RH ([2]; 40-75% RH): 6.12% wt uptake
GVS wt uptake between 75-90% RH ([2]; 75-90% RH): RH 14.5% wt
XRPD post GVS / XRPD after GVS [2]: Amorphous

Tosylate
pH of the equilibrated suspension in the solubility determination ([3]; measured after equilibration at 25° C. for 24 hours): 1.52
Aqueous Solubility ([3]; scaled-up amorphous salts, final pH printed in the same cell): 0.00 mgmL^−1
thermodynamic aqueous solubility, rank order [3]: HCl>H2SO4>tosylate=free base form
Stability 25° C./92% RH (XRPD after 7 days) ([1]; 25° C./92% RH): Amorphous
Stability 40° C./75% RH (XRPD after 7 days) ([1]; 40° C./75% RH): Amorphous
GVS wt uptake between 0-90% RH [2]: 9.5% wt uptake
XRPD post GVS / XRPD after GVS [2]: Amorphous
